Where two headings read alike, the source gives them in different places.
Key:
[1] = target: T2R38 subtype (bitter taste receptor) (Homo sapiens, UniProt P59533, A49P/I296V); details: Gα-T2R38 stable expression cell line, FIG. 18
Protocol: A Gα-T2R38 expression vector comprising a gene encoding a T2R38 subtype (bitter taste receptor) instead of the gene encoding T2R16 of Gα-T2R16 in Examples 1 and 2 was prepared, and thus a stable expression cell line was prepared by the same method as in Examples 1 and 2.
Subsequently, using the same method as in Example 3, the response to a known T2R38 agonist, 6-n-propylthiouracil (1000 μM, 300 μM), was measured. As a control, a cell line (HEK293T) not incorporating any Gα-T2R38 expression vector was used.

[2] = target: T1, T2R40 (Homo sapiens, UniProt P59535); test: Response of Gα-T2R40 stable expression cell line to agonist (Fluo-8 calcium fluorescence); format: cell-based; details: Gα-T2R40 compared with T2R40-Gα; agonist 100 μM or 300 μM; FIG. 3
T1 construct: expressed in transfected cells
T1 sequence (P59535 whole entry): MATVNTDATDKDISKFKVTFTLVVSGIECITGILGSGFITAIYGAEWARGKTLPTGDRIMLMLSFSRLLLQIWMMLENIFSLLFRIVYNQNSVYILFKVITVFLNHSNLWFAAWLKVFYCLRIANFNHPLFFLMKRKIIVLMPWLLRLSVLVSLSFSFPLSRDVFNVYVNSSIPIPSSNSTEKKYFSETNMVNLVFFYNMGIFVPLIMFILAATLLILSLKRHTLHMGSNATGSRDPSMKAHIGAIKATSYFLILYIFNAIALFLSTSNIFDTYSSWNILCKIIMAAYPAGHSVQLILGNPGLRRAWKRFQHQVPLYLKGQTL
Protocol: (§1) Specifically, by the same method as in Example 1 and Example 2, a Gα-T2R40 stable expression cell line (containing Gα16/Gαgust43-IRES-ssr/T2R40N5) and a Gα-T2R43 stable expression cell line (containing Gα16/Gαgust43-IRES-ssr/T2R43/V5) were prepared.
(§2) The Gα-T2R40 stable expression cell line and the Gα-T2R43 stable expression cell line were prepared by the same method as in Example 2. […] The results are depicted in FIG. 3.

[3] = target: T2, olfactory receptor (OR3A1) (Homo sapiens, UniProt P47881); test: cAMP response in cells transiently expressing olfactory receptor (cAMP-GloMax luminescence); format: cell-based; details: FIG. 20
T2 construct: N-terminal 21 amino acids of human rhodopsin (Rho); expressed in transfected cells; host or cells: HEK293T, transient, pcDNA vectors
T2 sequence (P47881 2-315 limits assumed): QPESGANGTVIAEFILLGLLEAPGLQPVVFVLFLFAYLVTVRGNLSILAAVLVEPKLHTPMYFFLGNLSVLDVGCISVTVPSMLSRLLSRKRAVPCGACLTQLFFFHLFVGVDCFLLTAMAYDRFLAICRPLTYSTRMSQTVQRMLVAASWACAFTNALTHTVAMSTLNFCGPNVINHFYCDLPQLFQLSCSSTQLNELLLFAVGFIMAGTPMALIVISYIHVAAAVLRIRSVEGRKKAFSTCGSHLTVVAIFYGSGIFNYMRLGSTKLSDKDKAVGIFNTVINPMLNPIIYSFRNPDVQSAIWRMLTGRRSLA
Protocol: Genes encoding Rho-OR3A1, in which N-terminal 21 amino acids (Rho) of human rhodopsin had been added to the N-terminus of OR3A1, and Gαolf were introduced together with IRES into pcDNA vectors by the same method as in Example 1, thereby preparing expression vectors, OR3A1-Gαolf and Gαolf-OR3A1. Using these expression vectors, transiently expressing HEK293T cells were prepared by the same method as in Example 4. As a control, HEK293T cells prepared by separate introduction of each gene of OR3A1 and Gαolf into pcDNA and then double-gene transfer thereof were used.
Next, helional, a known agonist for OR3A1, was added onto the prepared cells (100 μM, 30 μM). The amount of cAMP produced in association with the response of OR3A1 20 minutes after the addition of helional was detected by luminescence measurement using a cAMP-GloMax assay kit (Promega).

[4] = target: T3, T2R43 (Homo sapiens, UniProt P59537, H212R/W35S); test: Response of Gα-T2R43 stable expression cell line to agonist (Fluo-8 calcium fluorescence); format: cell-based; details: Gα-T2R43 compared with T2R43-Gα; agonist 100 μM or 300 μM; FIG. 3
T3 construct: expressed in transfected cells
T3 sequence (P59537 1-309 W35S/H212R): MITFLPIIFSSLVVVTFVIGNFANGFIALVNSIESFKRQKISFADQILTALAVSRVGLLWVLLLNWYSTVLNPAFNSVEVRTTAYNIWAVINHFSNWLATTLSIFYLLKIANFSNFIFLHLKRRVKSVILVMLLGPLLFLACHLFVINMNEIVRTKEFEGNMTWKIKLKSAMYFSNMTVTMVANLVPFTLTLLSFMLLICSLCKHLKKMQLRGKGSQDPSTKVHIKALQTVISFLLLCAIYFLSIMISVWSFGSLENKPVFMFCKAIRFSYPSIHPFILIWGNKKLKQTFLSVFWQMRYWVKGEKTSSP
Protocol: as §1, §2

[5] = target: T4, T2R16 (Homo sapiens, UniProt Q9NYV7); test: Response of T2R16 transiently expressing cells to bitter substance; format: cell-based; details: transient Gα-T2R16 in HEK293T compared with T2R16-Gα, co-transfection and Gα stable; FIG. 4
T4 construct: expressed in transfected cells
T4 sequence (Q9NYV7 1-291): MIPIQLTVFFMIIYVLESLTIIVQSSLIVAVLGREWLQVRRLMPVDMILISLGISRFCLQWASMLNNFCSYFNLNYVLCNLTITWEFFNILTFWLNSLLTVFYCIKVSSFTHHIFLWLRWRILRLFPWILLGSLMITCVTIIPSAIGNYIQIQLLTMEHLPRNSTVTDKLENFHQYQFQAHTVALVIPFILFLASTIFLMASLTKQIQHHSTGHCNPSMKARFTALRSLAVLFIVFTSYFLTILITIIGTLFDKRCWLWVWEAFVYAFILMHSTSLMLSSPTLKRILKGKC
Protocol: Into HEK293T seeded at 2×10^4 in a 96-well plate, 0.1 μg of each of the Gα-T2R16 and the T2R16-Gα plasmid vectors was introduced using lipofectamine (registered trademark) 3000. After 30 hours of culture, response intensity to salicin was measured using the same technique as in Example 3 (1) (maximum fluorescence intensity during 40 seconds after the addition of salicin). Note that drug resistance screening with hygromycin B as in Example 2 was not performed (transiently expressing cells).
Furthermore, as a comparative example, the following cells were also prepared other than T2R16-Gα expressing cells, and then the response to salicin was measured:
cells (cotransfection), prepared by simultaneous gene transfer of a total of 0.1 μg of a Gα16/Gαgust43gust expression vector and a ssr-T2R16-V5 expression vector comprising a Gα16/Gαgust43 expression gene and a ssr-T2R16-V5 expression gene, respectively, via incorporation thereof into pcDNA3.1 Hygro(+) vectors for transient expression of the genes; and
cells (Gα stable), prepared by the gene transfer of 0.1 μg of a ssr-T2R16-V5 expression vector into a Gα16/Gαgust43 stable expression cell line (subjected in advance to drug resistance screening using hygromycin B) prepared by the same technique as in Example 2 for transient expression of the genes.

[6] = target: T5, human bitter taste receptor (T2R16) (Homo sapiens, UniProt Q9NYV7); test: Response of T2R16 stable expression cell line to bitter substance (Fluo-8 calcium fluorescence); format: cell-based; details: salicin 10, 3, 1, 0.3 or 0.1 mM, FIG. 2
T5 construct: N-terminal 45 amino acids of rat somatostatin receptor 3 (ssr3); expressed in transfected cells
T5 sequence (Q9NYV7 1-291): T4 sequence (Q9NYV7 1-291)
Protocol: Specifically, into 1×10^6 cells of the human embryonic kidney cell line HEK293T (obtained from RIKEN) seeded in a culture vessel, 5 μg of each of the Gα-T2R16 and T2R16-Gα plasmid vectors prepared in Example 1 was introduced through the use of lipofectamine (registered trademark) 3000 (Thermo Fisher Scientific Inc.). After 48 hours of culture, drug resistance screening was performed by adding 100 μg/mL hygromycin B to the medium and then culturing for about 15 days. Cells that had acquired drug resistance were cloned by seeding these cells in each well of a 96-well plate at one cell per well. After about 10 days of culture, a stable expression cell line was obtained.
The T2R16 stable expression cell line prepared based on the method described in Example 2 was seeded at 2×10^4 cells/well in a 96-well plate. The culture media for cells contained a green fluorescent calcium indicator Fluo-8 (registered trademark) (AAT Bioquest, Inc.), and the uptake of Fluo-8 into the cell lines was examined. Fluo-8 (registered trademark) is suitable for detection of intracellular calcium dynamics and is an indicator of GPCR activity.
Cells incorporating Fluo-8 (registered trademark) were excited at 490 nm and the fluorescence intensity at 514 nm was measured. […] The results are depicted in FIG. 2.

[7] = target: T4, T2R16; test: Response intensity before and after cryopreservation of T2R16 stable expression cell line; format: cell-based; details: FIG. 7
Protocol: Gα-T2R16 in this example was prepared in the same manner as in the case of the Gα-T2R16 stable expression cell line in Example 2, but pEAK10 (Edge biosystem, Inc.) was used as an expression vector and “ssr/T2R16” (without V5) was inserted instead of “ssr/T2R16/V5”. Further, drug resistance screening was performed with 1 μg/mL puromycin instead of hygromycin B.
As a comparative example, into the Gα16/Gαgust43 stable expression cell line (subjected in advance to drug resistance screening with puromycin) prepared using the same technique as in Example 2, 5 μg of ssr-T2R16 expression vector was introduced and then drug resistance screening was performed using puromycin. The thus prepared stable expression cell line (Double stable) stably expressing Gα16/Gαgust43+T2R16 was used.
Before and after cryopreservation of the cell line, the response intensity to salicin (1 or 0.1 mM) was examined in the same manner as in Example 3. For cryopreservation, CELLBANKER (Nippon Zenyaku Kogyo Co., Ltd.) was used, and cells were stored under liquid nitrogen for 1 month. The temperature for the cryopreserved cells was brought back to normal temperature, cells were passaged at least twice, and then the response intensity after cryopreservation was measured. The results are depicted in FIG. 7.

Chain of T2R38 subtype (bitter taste receptor) (P59533 whole entry A49P/I296V): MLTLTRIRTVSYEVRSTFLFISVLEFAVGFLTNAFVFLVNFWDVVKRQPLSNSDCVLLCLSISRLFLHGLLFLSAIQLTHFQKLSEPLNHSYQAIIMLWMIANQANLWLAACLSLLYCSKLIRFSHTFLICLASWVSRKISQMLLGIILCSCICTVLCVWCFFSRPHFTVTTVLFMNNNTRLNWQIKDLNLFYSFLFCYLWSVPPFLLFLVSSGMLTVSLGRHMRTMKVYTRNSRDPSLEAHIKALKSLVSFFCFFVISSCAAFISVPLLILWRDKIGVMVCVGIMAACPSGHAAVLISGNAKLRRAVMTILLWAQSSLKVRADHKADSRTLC

SMILES: CCCc1cc(=O)[nH]c(=S)[nH]1 [6-n-propylthiouracil]
- response to T2R38 agonist ([1]; 300 μM): exhibited
- response to T2R38 agonist ([1]; 1000 μM): exhibited

SMILES: OC(CCCN1CCCCC1)(c1ccccc1)c1ccccc1 [diphenydol]
- response intensity of T2R40 to the agonist [2]: higher response intensity

SMILES: CC(C=O)Cc1ccc2c(c1)OCO2 (centres unmarked) [helional]
- amount of cAMP produced in association with the response of OR3A1 ([3]; HEK293T cells with Gαolf-OR3A1 expression vector, 100 μM helional, 20 minutes after addition): increase in cAMP
- amount of cAMP produced in association with the response of OR3A1 ([3]; HEK293T cells with OR3A1-Gαolf expression vector, helional 100 μM, 30 μM, 20 minutes): no response
- amount of cAMP produced in association with the response of OR3A1 ([3]; HEK293T cells with OR3A1 and Gαolf genes introduced separately, helional 100 μM, 30 μM, 20 minutes): no response

SMILES: C=C[C@H]1C[N@@]2CC[C@H]1C[C@H]2[C@H](O)c1ccnc2ccc(OC)cc12 [quinine]
- response intensity of T2R43 to the agonist [4]: higher response intensity

SMILES: OCc1ccccc1O[C@@H]1O[C@H](CO)[C@@H](O)[C@H](O)[C@H]1O [salicin]
- response intensity to salicin [5]: response intensity higher
- response intensity of T2R16 to the agonist (increase rate of maximum fluorescence intensity) ([6]; HEK293T stable cell line containing the Gα-T2R16 plasmid): exhibited responses
- response intensity of T2R16 to the agonist (increase rate of maximum fluorescence intensity) ([6]; cell line containing the comparative T2R16-Gα plasmid): almost no response
- ratio of response intensity after freezing/response intensity before freezing ([7]; Gα-T2R16 stable expression cell line (pEAK10), salicin 0.1 mM, 1 month under liquid nitrogen): ≥ 0.8
- ratio of response intensity after freezing/response intensity before freezing ([7]; Gα-T2R16 stable expression cell line (pEAK10), salicin 1 mM, 1 month under liquid nitrogen): ≥ 0.8
- ratio of response intensity after freezing/response intensity before freezing ([7]; comparative Double stable cell line (Gα16/Gαgust43+T2R16), salicin 0.1 mM): ≤ 0.4
- ratio of response intensity after freezing/response intensity before freezing ([7]; comparative Double stable cell line (Gα16/Gαgust43+T2R16), salicin 1 mM): less than 0.6

Reference: patent publication US20200247859A1, “CONSTRUCT FOR EXPRESSING G PROTEIN-COUPLED RECEPTOR OR SUBUNIT THEREOF, AND USE OF SAID CONSTRUCT” (JAPAN TOBACCO INC., priority 2017, published 2020)
